Assay results: ChEMBL document CHEMBL3885881, “DrugMatrix”

Species on record: Rattus norvegicus
Assay: DrugMatrix - Regimen: Daily Repeat
Format: toxicity, organism-based, Sprague-Dawley
Design: regimen Daily Repeat, gender Male, age 6-8 weeks
Conditions: in vivo, po, route oral GAVAGE, […]; for ABSOLUTE BASOPHIL / ABSOLUTE EOSINOPHIL / ABSOLUTE LYMPHOCYTE / ABSOLUTE MONOCYTE / ABSOLUTE SEGMENTED NEUTROPHIL / BASOPHIL / EOSINOPHIL / ERYTHROCYTE COUNT / HEMATOCRIT / HEMOGLOBIN / LEUKOCYTE COUNT / LYMPHOCYTE / MEAN CORPUSCULAR HEMOGLOBIN / MEAN CORPUSCULAR HEMOGLOBIN CONCENTRATION / MEAN CORPUSCULAR VOLUME / MONOCYTE / NEUTROPHIL / NUCLEATED RED BLOOD CELLS / PLATELET COUNT: tissue Blood; for ALANINE AMINOTRANSFERASE / ALBUMIN / ALKALINE PHOSPHATASE / ASPARTATE AMINOTRANSFERASE / BLOOD UREA NITROGEN / CARBON DIOXIDE / CHLORIDE / CHOLESTEROL / CREATINE PHOSPHOKINASE / CREATININE / GLUCOSE / LACTATE DEHYDROGENASE / LIPASE / PHOSPHORUS / POTASSIUM / SODIUM / TOTAL BILIRUBIN / TOTAL PROTEIN / URIC ACID: tissue Plasma
[1] = 0 mg/kg, 72 h, dose level Control, time 3 day
[2] = 0 mg/kg, 120 h, dose level Control, time 5 day
[3] = 47 mg/kg, 72 h, dose level Low, time 3 day

SMILES: CC(=O)Nc1nnc(S(N)(=O)=O)s1 [ACETAZOLAMIDE]
- ABSOLUTE BASOPHIL [1]: 0 CELLS/uL
- ABSOLUTE EOSINOPHIL [1]: 41.83 CELLS/uL
- ABSOLUTE LYMPHOCYTE [1]: 8545.5 CELLS/uL
- ABSOLUTE MONOCYTE [1]: 240 CELLS/uL
- ABSOLUTE SEGMENTED NEUTROPHIL [1]: 906 CELLS/uL
- BASOPHIL [1]: 0%
- EOSINOPHIL [1]: 0.33%
- ERYTHROCYTE COUNT [1]: 5.6 x10E6/uL
- HEMATOCRIT [1]: 35.4%
- HEMOGLOBIN [1]: 13.42 G/DL
- LEUKOCYTE COUNT [1]: 9.73 x10E3/uL
- LYMPHOCYTE [1]: 87.83%
- MEAN CORPUSCULAR HEMOGLOBIN [1]: 23.98 pg
- MEAN CORPUSCULAR HEMOGLOBIN CONCENTRATION [1]: 37.92 G/DL
- MEAN CORPUSCULAR VOLUME [1]: 63.3 fL
- MONOCYTE [1]: 2.5%
- NEUTROPHIL [1]: 9.33%
- NUCLEATED RED BLOOD CELLS [1]: 0 /100WBC
- PLATELET COUNT [1]: 1032 x10E3/uL
- ALANINE AMINOTRANSFERASE [1]: 72.83 u/L
- ALBUMIN [1]: 4 G/DL
- ALKALINE PHOSPHATASE [1]: 322.83 u/L
- ASPARTATE AMINOTRANSFERASE [1]: 102.67 u/L
- BLOOD UREA NITROGEN [1]: 12 mg/dL
- CARBON DIOXIDE [1]: 34.33 mmol/L
- CHLORIDE [1]: 97.67 MEQ/L
- CHOLESTEROL [1]: 82.5 mg/dL
- CREATINE PHOSPHOKINASE [1]: 410.33 u/L
- CREATININE [1]: 0.18 mg/dL
- GLUCOSE [1]: 164.5 mg/dL
- LACTATE DEHYDROGENASE [1]: 119.5 u/L
- LIPASE [1]: 11.83 u/L
- PHOSPHORUS [1]: 9.52 mg/dL
- POTASSIUM [1]: 5.56 MEQ/L
- SODIUM [1]: 142.48 MEQ/L
- TOTAL BILIRUBIN [1]: 0.18 mg/dL
- TOTAL PROTEIN [1]: 5.77 G/DL
- URIC ACID [1]: 0.48 mg/dL
- ABSOLUTE BASOPHIL [2]: 0 CELLS/uL
- ABSOLUTE EOSINOPHIL [2]: 0 CELLS/uL
- ABSOLUTE LYMPHOCYTE [2]: 9065 CELLS/uL
- ABSOLUTE MONOCYTE [2]: 341.33 CELLS/uL
- ABSOLUTE SEGMENTED NEUTROPHIL [2]: 527 CELLS/uL
- BASOPHIL [2]: 0%
- EOSINOPHIL [2]: 0%
- ERYTHROCYTE COUNT [2]: 5.25 x10E6/uL
- HEMATOCRIT [2]: 34.08%
- HEMOGLOBIN [2]: 13.5 G/DL
- LEUKOCYTE COUNT [2]: 9.93 x10E3/uL
- LYMPHOCYTE [2]: 91.17%
- MEAN CORPUSCULAR HEMOGLOBIN [2]: 25.7 pg
- MEAN CORPUSCULAR HEMOGLOBIN CONCENTRATION [2]: 39.62 G/DL
- MEAN CORPUSCULAR VOLUME [2]: 64.93 fL
- MONOCYTE [2]: 3.33%
- NEUTROPHIL [2]: 5.5%
- NUCLEATED RED BLOOD CELLS [2]: 0 /100WBC
- PLATELET COUNT [2]: 1077.5 x10E3/uL
- ALANINE AMINOTRANSFERASE [2]: 57.83 u/L
- ALBUMIN [2]: 4.07 G/DL
- ALKALINE PHOSPHATASE [2]: 319.17 u/L
- ASPARTATE AMINOTRANSFERASE [2]: 83.33 u/L
- BLOOD UREA NITROGEN [2]: 13.67 mg/dL
- CARBON DIOXIDE [2]: 30.83 mmol/L
- CHLORIDE [2]: 98.33 MEQ/L
- CHOLESTEROL [2]: 64.83 mg/dL
- CREATINE PHOSPHOKINASE [2]: 263.67 u/L
- CREATININE [2]: 0.2 mg/dL
- GLUCOSE [2]: 182.83 mg/dL
- LACTATE DEHYDROGENASE [2]: 124 u/L
- LIPASE [2]: 10.5 u/L
- PHOSPHORUS [2]: 10 mg/dL
- POTASSIUM [2]: 5.78 MEQ/L
- SODIUM [2]: 142.48 MEQ/L
- TOTAL BILIRUBIN [2]: 0.2 mg/dL
- TOTAL PROTEIN [2]: 6 G/DL
- URIC ACID [2]: 0.7 mg/dL
- ABSOLUTE BASOPHIL [3]: 0 CELLS/uL
- ABSOLUTE EOSINOPHIL [3]: 0 CELLS/uL
- ABSOLUTE LYMPHOCYTE [3]: 9847 CELLS/uL
- ABSOLUTE MONOCYTE [3]: 251.33 CELLS/uL
- ABSOLUTE SEGMENTED NEUTROPHIL [3]: 935 CELLS/uL
- BASOPHIL [3]: 0%
- EOSINOPHIL [3]: 0%
- ERYTHROCYTE COUNT [3]: 5.11 x10E6/uL
- HEMATOCRIT [3]: 32.2%
- HEMOGLOBIN [3]: 12.47 G/DL
- LEUKOCYTE COUNT [3]: 11.03 x10E3/uL
- LYMPHOCYTE [3]: 88.67%
- MEAN CORPUSCULAR HEMOGLOBIN [3]: 24.43 pg
- MEAN CORPUSCULAR HEMOGLOBIN CONCENTRATION [3]: 38.77 G/DL
- MEAN CORPUSCULAR VOLUME [3]: 63 fL
- MONOCYTE [3]: 2.33%
- NEUTROPHIL [3]: 9%
- NUCLEATED RED BLOOD CELLS [3]: 0 /100WBC
- PLATELET COUNT [3]: 1122.33 x10E3/uL
- ALANINE AMINOTRANSFERASE [3]: 67 u/L
- ALBUMIN [3]: 3.77 G/DL
- ALKALINE PHOSPHATASE [3]: 486.33 u/L
- ASPARTATE AMINOTRANSFERASE [3]: 91.33 u/L
- BLOOD UREA NITROGEN [3]: 11.33 mg/dL
- CARBON DIOXIDE [3]: 31 mmol/L
- CHLORIDE [3]: 99 MEQ/L
- CHOLESTEROL [3]: 74 mg/dL
- CREATINE PHOSPHOKINASE [3]: 250 u/L
- CREATININE [3]: 0.31 mg/dL
- GLUCOSE [3]: 173 mg/dL
- LACTATE DEHYDROGENASE [3]: 140.67 u/L
- LIPASE [3]: 13.33 u/L
- PHOSPHORUS [3]: 10.33 mg/dL
- POTASSIUM [3]: 5.3 MEQ/L
- SODIUM [3]: 144.37 MEQ/L
- TOTAL BILIRUBIN [3]: 0.23 mg/dL
- TOTAL PROTEIN [3]: 5.5 G/DL
- URIC ACID [3]: 0.67 mg/dL
